Experimental data: patent US8614064B2, “Methods of diagnosing atherosclerosis by measuring ApoCI” (The Johns Hopkins University, priority 2003, dated 2013)

Assays:
[1] = tested on: human aortic smooth muscles cells (ASMC); assay: DNA laddering assay; assay type: cell-based; conditions: ApoCI or ApoCIII 2.5 μg/mL, TNF-α positive control
Description: (§1) FIGS. 1A-1C depict the effect of apolipoproteins on apoptosis in human aortic smooth muscles cells (ASMC). ASMC were grown on sterilized glass cover slips and incubated for 24 hours with media alone (control), ApoCIII (negative control, 2.5 μg/mL medium), ApoCI (2.5 μg/mL medium), ApoCI-enriched HDL (1 μg apoA-I/mL medium), or ApoCI-poor HDL (5 μg apoA-I/mL medium) for 24 hours. Cells were then fixed with ethanol-acetic acid (3:1 volume/volume) and washed 3 times with phosphate-buffered saline. The cells were then stained with DAPI reagent, mounted on a glass cover slide, and subjected to fluorescence microscopy. FIG. 1A: The nucleus of normal cells stains blue and the nucleus of apoptotic cells stains is fragmented white. FIG. 1B: 300 to 500 cells in each sample were counted and the percent of apoptotic cells was plotted. Values are mean±SD; **P<0.01, ***P<0.001. FIG. 1C: DNA ladder assay. Confluent cultures of ASMC were incubated with control medium alone, ApoCI (2.5 μg/mL medium), ApoCIII (negative control, 2.5 μg/mL medium), and TNF-α (positive control, 20 ng/mL medium). Genomic DNA was extracted and 10 μg DNA was subjected to agarose gel electrophoresis. The gels were calibrated with commercially available DNA standards. After electrophoresis, the gels were stained with ethidium bromide and then photographed.
Cells were treated with either TNF-α (30 ng/ml), ApoCI or ApoCIII (2.5 μg/ml) for 6 h. The cells were then washed twice with minimal essential medium and harvested with buffer (10 mM HEPES, pH 7.4. 5 mM EDTA, 0.25 mM EGTA, 50 mM NaF, 5 mM β-mercaptoethanol, 0.35 M sucrose, 0.1% Nonidet and protease inhibitors, 1 mM phenylmethylsulfonyl fluoride, 2 μg/ml leupeptin and 5 μg/ml pepstatin), and pelleted. Genomic DNA was prepared employing standard protocol. Genomic DNA was subjected to electrophoresis, stained with ethidium bromide and the gel was photographed. The gel was calibrated using DNA fragments of known molecular weight.

[2] = tested on: N-SMase; assay: Neutral sphingomyelinase assay in treated ASMC ([14C]sphingomyelin substrate); assay type: cell-based, human; conditions: 5 min; ApoCI 2.5 μg/mL, TNF-α 20 ng/mL, ApoCI-enriched HDL 1 μg apoA-I/mL; control 22 nmol/h per mg protein = 100%
Description: FIGS. 3A-3C depict the effects of ApoCI, ApoCIII, TNF-α, ApoCI-enriched HDL, and ApoCI-poor HDL on the activity of N-SMase in ASMC. Confluent cultures of ASMC were preincubated for 30 minutes with serum-free (control) medium, then ApoCI (2.5 μg/mL medium), ApoCIII (2.5 μg/mL medium), TNF-α (20 ng/mL medium) (FIG. 3A, top), or ApoCI-enriched HDL (1 μg apoAI/mL medium), or ApoCI-poor HDL (5 μg apoA-I/mL medium) (FIG. 3B, middle) were added individually to cells. The cells were then incubated and harvested at the indicated time points, and the activity was of N-SMase determined using [^14C]sphingomyelin as substrate. The N-SMase activity in control cells was 22 nmol/h per milligram cell protein, and this value was considered as 100% activity. In a separate experiment (FIG. 3C bottom), cells (0.5×10^5) were seeded in P60 Petri dishes and grown in DMEM supplemented with 10% fetal bovine serum for 5 days. After preincubation of cells for 30 minutes in serum-free medium, increasing amounts of ApoCI were added. After incubation for 10 minutes, cells were harvested, and N-SMase activity was measured.
After stimulation with ApoCI ApoCI-enriched HDL and ApoCI-poor HDL, the cells were washed with 5 ml of PBS and harvested. The pellets were stored frozen at −70° C. and resuspended in 0.5 ml of buffer (100 mM Tris-HCl pH 7.4, 0.1% Triton X-100, 1 mM EDTA and protease inhibitors). The cell suspension was sonicated 3 times (3-s bursts) using a probe sonicator and centrifuged at 500×g at 4° C. for 5 min. The supernatant was used as the enzyme source. 100 μg of protein was assayed for neutral sphingomyelinase activity in a buffer consisting of 50 mM Tris-HCl, pH 7.4, 0.1% Triton X-100, 0.1 mg of bovine serum albumin, 5 mM MgCl2 and […] of [^14C]sphingomyelin (specific activity 50 mCi/mmol, from American Radiolabled Chemicals (St. Louis, Mo.). The samples were incubated at 37° C. for 2 h and terminated with the addition of 1 ml of 10% trichloroacetic acid. The precipitate was pelleted (1000×g at 4° C. for 30 min) and 1 ml of the supernatant was extracted with 1 ml of anhydrous diethyl ether. About 0.5 ml of the aqueous phase was removed for liquid scintillation counting (Ghosh, N., and Chatterjee, S. (1998) J. Biol. Chem. 264, 12554-12561).

[3] = tested on: human aortic smooth muscles cells (ASMC); assay: Fluorescence microscope quantitative assay of apoptotic death (DAPI staining); assay type: cell-based; conditions: C2-ceramide 10 μmol/L + ApoCI 2.5 μg/mL + GW4869 20 μmol/L, 24 h; control 2.2%
Description: as §1
FIGS. 2A-2B depict the effect of ApoCI, the N-SMase inhibitor, GW4869, and C-2 ceramide on apoptosis in cultured human ASMC. FIG. 2A: ASMC (1×10^3) were seeded on sterilized glass cover slips and grown in tissue culture medium with 10% fetal calf serum for 48 hours. […] Thirty minutes later, vehicle DMSO, ApoCI (2.5 μg/mL), or C2-ceramide (10 μmol/L) were added to dishes, and the incubation continued for 24 hours. The cells were then fixed with ethanol-acetic acid (3:1 v/v), stained with DAPI reagent, assessed by fluorescent microscopy, and photographed. Top to bottom: control cells; cells incubated with ApoCI± the N-SMase inhibitor, GW4869; and cells incubated with ApoCI GW4869, and C2-ceramide. FIG. 2B: The DAPI-stained ASMC from the four experimental conditions described was analyzed for quantitative apoptosis. Mean (SD) from 4 experiments. *P<0.05.
Human AoSMC that were negative for mycoplasma, hepatitis B and C and HIV-1 were purchased from Clonetics (San Diego, Calif.) and cultured in Dulbecco's minimal essential medium (Invitrogen, Carlsbad, Calif.) with 10% fetal bovine serum (Hyclone, Salt Lake City, Utah), 100-units/ml penicillin, 100-μg/ml streptomycin to confluence. The cells were incubated in serum-free medium for 30 min prior to initiating the experiments. Cells were then washed and harvested in PBS, and centrifuged at 1500 rpm for 5 min at 4° C. Protease inhibitors were then added and the pellets stored frozen at −30° C. until use.
1×10^3 cells were grown on sterilized glass cover slips in 6-well trays and treated with ApoCI (2.5 μg/ml medium), ApoCIII (2.5 μg/ml medium), tumor necrosis factor (TNF)-α (30 ng/ml), ApoCI-enriched HDL (1 μg apoA-I/ml medium) and ApoCI-poor HDL (5 μg apoA-I/ml medium). After 24 h incubation, the medium was removed, cells fixed with ethanol:acetic acid […] and stored at 4° C. Next, the fixing solution was removed and cells stored frozen at −30° C. Cover slips were mounted on the microscope slides and stained with DAPI reagent (4,6-diamino-2-phenylindol, dihydrochloride). The stained nuclei were visualized by fluorescence microscopy (Zeiss Axiovert 25). Apoptotic cells were determined after counting—500 cells in a double blind fashion.

| increase in the activity of N-SMase at 5 minutes [2] [fold] | Compound | DNA laddering on agarose gel (FIG. 1C) [1] | percent apoptotic cells with C2-ceramide added to ApoCI and GW4869 [3] [%] |
| --- | --- | --- | --- |
| ~2 | tumor necrosis factor α [TNF-α] | exhibited DNA laddering |  |
|  | CCCCCCCCCCCCC/C=C/[C@@H](O)[C@H](CO)NC(C)=O [C2-ceramide] |  | ~12.5 |
